The source of these data is patent US10759794B2, “2-phenyl-3-(piperazinomethyl)imidazo[1,2-A]pyridine derivatives as blockers of task-1 and task-2 channels, for the treatment of sleep-related breathing disorders” (BAYER PHARMA AKTIENGESELLSCHAFT, priority 2015, dated 2020).

For assay [1], the target named is human TASK-1 (Homo sapiens (Human), UniProt O14649). The assay is described as follows: Inhibition of recombinant TASK-1 in stably transfected CHO cells (voltage-sensitive dye, FLIPR). Format: cell-based. The method, then:
(§1) B-2. Inhibition of Recombinant TASK-1 and TASK-3 In Vitro
(§2) The investigations on the inhibition of the recombinant TASK-1 and TASK-3 channels were carried out using stably transfected CHO cells. Here, the compounds according to the invention were tested with administration of 40 mM of potassium chloride in the presence of a voltage-sensitive dye using the method described in detail in the following references [Whiteaker et al., Validation of FLIPR membrane potential dye for high-throughput screening of potassium channel modulators, J. Biomol. Screen. 6 (5), 305-312 (2001); Molecular Devices FLIPR Application Note: Measuring membrane potential using the FLIPR® membrane potential assay kit on Fluorometric Imaging Plate Reader (FLIPR®) systems, http://www.moleculardevices.com/reagents-supplies/assay-kits/ion-channels/flipr-membrane-potential-assay-kits]. The activity of the test substances was determined as their ability to inhibit a depolarization induced in the recombinant cells by 40 mM potassium chloride. The concentration which can block half of this depolarization is referred to as IC50.

The target of assay [2] is human TASK-3 (Homo sapiens (Human), UniProt Q9NPC2). The assay is described as follows: Inhibition of recombinant TASK-3 in stably transfected CHO cells (voltage-sensitive dye, FLIPR). It counts as cell-based. On the procedure: as §1, §2
Chain of human TASK-3 (Q9NPC2 whole entry): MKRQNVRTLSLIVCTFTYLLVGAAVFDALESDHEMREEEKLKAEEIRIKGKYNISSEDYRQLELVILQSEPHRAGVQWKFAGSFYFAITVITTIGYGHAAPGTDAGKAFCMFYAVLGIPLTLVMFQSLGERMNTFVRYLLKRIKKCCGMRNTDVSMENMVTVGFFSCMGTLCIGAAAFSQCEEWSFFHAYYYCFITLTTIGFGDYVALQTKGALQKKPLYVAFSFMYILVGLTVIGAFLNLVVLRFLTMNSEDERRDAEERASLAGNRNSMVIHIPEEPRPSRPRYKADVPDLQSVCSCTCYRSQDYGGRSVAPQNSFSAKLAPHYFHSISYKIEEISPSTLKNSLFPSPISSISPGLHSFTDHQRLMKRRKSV
Where [3] appears, read: depolarization induced by 40 mM potassium chloride, Table 2A.
Setting [4] is: 40 mM potassium chloride, comparative compounds, Table 2B.

Chain of human TASK-1 (O14649 whole entry): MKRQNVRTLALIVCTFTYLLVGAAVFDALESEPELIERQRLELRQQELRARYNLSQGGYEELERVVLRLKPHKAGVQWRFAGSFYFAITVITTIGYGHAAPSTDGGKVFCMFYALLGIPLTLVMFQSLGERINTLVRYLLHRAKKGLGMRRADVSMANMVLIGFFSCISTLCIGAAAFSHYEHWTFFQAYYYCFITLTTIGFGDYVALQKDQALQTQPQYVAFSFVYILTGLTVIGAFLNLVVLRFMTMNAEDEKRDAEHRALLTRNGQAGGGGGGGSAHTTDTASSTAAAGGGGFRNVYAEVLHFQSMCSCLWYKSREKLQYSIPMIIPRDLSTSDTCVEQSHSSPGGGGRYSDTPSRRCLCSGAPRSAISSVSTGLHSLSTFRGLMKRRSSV

For orientation: IC50 means the concentration needed to halve the response being measured. On to `COc1cccc(C(=O)N2CCN(Cc3c(-c4ccc(C)cc4)nc4ccccn34)CC2)n1` [Example 59], for which the concentration for half-maximal inhibition (IC50) was found to be 0.8 µM in assay [1] (setting [3]) and 0.43 µM in assay [2] (setting [3]).

As to `N#Cc1ccc(-c2nc3ccccn3c2CN2CCN(C(=O)c3ccccc3F)CC2)cc1` [Example 60], the values for the 50% inhibitory concentration (IC50) in assay [1] (setting [3]) and in assay [2] (setting [3]) were 1.7 µM and 4.6 µM, respectively.

With `COc1cccc(C(=O)N2CCN(Cc3c(-c4ccc(C#N)cc4)nc4ccccn34)CC2)n1` [Example 61], the results for the IC50 in assay [1] (setting [3]) and in assay [2] (setting [3]) were 2.05 µM and 1.4 µM, respectively.

With `N#Cc1ccc(-c2nc3ccccn3c2CN2CCN(C(=O)C3CCCC3)CC2)cc1` [Example 62], the IC50 in assay [1] (setting [3]) worked out at 1.2 µM; in assay [2] (setting [3]), 3.1 µM.

Turning to `N#Cc1ccc(-c2nc3ccccn3c2CN2CCN(C(=O)C3CCCCC3)CC2)cc1` [Example 63], the IC50 was found to be 1.3 µM in assay [1] (setting [3]) and 1.6 µM in assay [2] (setting [3]).

For `COc1cccc(C(=O)N2CCN(Cc3c(-c4ccc(C(C)(C)C)cc4)nc4ccccn34)CC2)n1` [Example 64], the concentration for half-maximal inhibition (IC50) was 0.51 µM in assay [1] (setting [3]) and 0.45 µM in assay [2] (setting [3]).

In the case of `CC(C)(C)c1ccc(-c2nc3ccccn3c2CN2CCN(C(=O)c3ccccc3F)CC2)cc1` [Example 65], the half-maximal inhibitory concentration (IC50) was 1.1 µM in assay [1] (setting [3]) and 0.75 µM in assay [2] (setting [3]).

In the case of `CC(C)(C)c1ccc(-c2nc3ccccn3c2CN2CCN(C(=O)C3CCCC3)CC2)cc1` [Example 66], the 50% inhibitory concentration (IC50) in assay [1] (setting [3]) is 1.5 µM; in assay [2] (setting [3]) it was 0.83 µM.

For the compound `O=C(c1cccc(OC(F)(F)F)n1)N1CCN(Cc2c(-c3ccc(Cl)cc3)nc3ccccn23)CC1` [Example 67, (4-{[2-(4-Chlorophenyl)imidazo [1,2-a]pyridin-3-yl]methyl}piperazin-1-yl) [6-(trifluoromethoxy)pyridin-2-yl]methanone], the concentration for half-maximal inhibition (IC50) was determined as 0.042 µM in assay [1] (setting [3]) and 0.0094 µM in assay [2] (setting [3]).

Turning to `COc1ccc(F)c(C(=O)N2CCN(Cc3c(-c4ccc(Cl)cc4)nc4ccccn34)CC2)n1` [Example 68, (4-{[2-(4-Chlorophenyl)imidazo[1,2-a]pyridin-3-yl]methyl}piperazin-1-yl)(3-fluoro-6-methoxypyridin-2-yl)methanone], the values for the half-inhibitory concentration (IC50) in assay [1] (setting [3]) and in assay [2] (setting [3]) were 0.093 µM and 0.0052 µM, respectively.

In the case of `O=C(c1ccccc1F)N1CCN(Cc2c(-c3ccc(C4CC4)cc3)nc3ccccn23)CC1` [Example 69, (4-{[2-(4-Cyclopropylphenyl)imidazo[1,2-a]pyridin-3-yl]methyl}piperazin-1-yl)(2-fluorophenyl)methanone], the IC50 in assay [1] (setting [3]) stood at 0.066 µM; in assay [2] (setting [3]), 0.011 µM.

For the compound `COc1ccc(F)c(C(=O)N2CCN(Cc3c(-c4ccc(C#N)cc4)nc4ccccn34)CC2)c1` [Example 70], the half-inhibitory concentration (IC50) in assay [1] (setting [3]) is 1.8 µM; in assay [2] (setting [3]), 0.35 µM.

In the case of `COc1ccc(C)c(C(=O)N2CCN(Cc3c(-c4ccc(C#N)cc4)nc4ccccn34)CC2)n1` [Example 71], the IC50 in assay [1] (setting [3]) came to 0.23 µM; in assay [2] (setting [3]) it was 0.016 µM.

With `COc1ccc(C)c(C(=O)N2CCN(Cc3c(-c4ccc(Cl)cc4)nc4ccccn34)CC2)n1` [Example 72], the IC50 in assay [1] (setting [3]) stood at 0.071 µM; in assay [2] (setting [3]), 0.003 µM.

In the case of `COc1ccc(C)c(C(=O)N2CCN(Cc3c(-c4ccc(C(C)(C)C)cc4)nc4ccccn34)CC2)n1` [Example 73], the results for the IC50 in assay [1] (setting [3]) and in assay [2] (setting [3]) were 0.17 µM and 0.017 µM, respectively.

As for `COc1ccc(C)c(C(=O)N2CCN(Cc3c(-c4ccc(Br)cc4)nc4ccccn34)CC2)n1` [Example 74], the 50% inhibitory concentration (IC50) in assay [1] (setting [3]) was 0.067 µM; in assay [2] (setting [3]), 0.0091 µM.

Take `O=C(c1ccccc1Cl)N1CCN(Cc2c(-c3ccc(Cl)cc3)nc3ccc(-c4ccccc4)cn23)CC1` [WO 2014/187922 Example 64, reference compound]: the results for the half-maximal inhibitory concentration (IC50) in assay [1] (setting [4]) and in assay [2] (setting [4]) were 30 µM and 2.2 µM, respectively.

For the compound `O=C(c1cccc(F)c1)N1CCN(Cc2c(-c3ccc(Cl)cc3)nc3ccc(C4CC4)cn23)CC1` [WO 2014/187922 Example 178, reference compound], the IC50 in assay [1] (setting [4]) is 30 µM; in assay [2] (setting [4]) it was 4.8 µM.
